US20060264460A1 (Wyeth, priority 2005, published 2006)

Each compound was assayed against T1, human Cot/Tpl2 kinase (Homo sapiens, UniProt P41279) (assay: Tpl2/Cot kinase assay: GST-MEK1 phosphorylation detected by ELISA (DELFIA Eu)). Conditions: 0.4 nM Tpl2, 35 nM GST-MEK1, 50 uM ATP, 1 h at 30° C.
T1 construct: human Cot/Tpl2 kinase construct encoding residues 30-398; 6His (N); made in house; host or cells: Sf9 insect cells, baculovirus system (BD Biosciences)
Assay type: biochemical
Summary of the method: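 Substrate phosphorylation (GST-MEK1 Ser217/221) quantified by DELFIA europium ELISA, yielding IC50 values. Reaction: 1 h at 30° C, pH 7.2 MOPS buffer, 50 uM ATP, 35 nM GST-MEK1, 0.4 nM monomeric His-Tpl2 purified from Sf9 cells, compounds at 1% final DMSO; stopped with EDTA.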

T1 sequence (P41279 30-398): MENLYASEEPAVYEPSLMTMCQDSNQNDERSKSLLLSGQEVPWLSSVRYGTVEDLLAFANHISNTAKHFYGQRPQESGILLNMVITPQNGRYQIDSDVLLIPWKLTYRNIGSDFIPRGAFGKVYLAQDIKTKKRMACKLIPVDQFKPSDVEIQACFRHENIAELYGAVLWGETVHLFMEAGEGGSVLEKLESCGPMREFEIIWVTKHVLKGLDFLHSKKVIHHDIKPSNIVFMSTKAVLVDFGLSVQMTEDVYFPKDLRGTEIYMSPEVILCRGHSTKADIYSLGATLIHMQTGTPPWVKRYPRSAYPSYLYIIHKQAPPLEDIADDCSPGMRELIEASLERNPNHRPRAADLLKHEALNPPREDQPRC

| IC50 | Structure (SMILES) |
| --- | --- |
| 0.016 µM | Cc1c(CNc2cc(F)c3ncc(C#N)c(Nc4ccc(F)c(Cl)c4)c3c2)ncn1C [Example 269, 4-[(3-chloro-4-fluorophenyl)amino]-6-{[(1,5-dimethyl-1H-imidazol-4-yl)methyl]amino}-8-fluoroquinoline-3-carbonitrile] |
| 0.61 µM | N#Cc1cnc2ccc(NCc3ccc(O)c(Cl)c3)cc2c1Nc1ccc(F)c(Cl)c1 [Example 151, 6-(3-chloro-4-hydroxybenzylamino)-4-(3-chloro-4-fluorophenylamino)quinoline-3-carbonitrile] |
| 0.57 µM | N#Cc1cnc2c(I)cc(NCc3cccnc3)cc2c1Nc1cccc(Cl)c1 [Example 79, 4-(3-chlorophenylamino)-8-iodo-6-(pyridin-3-ylmethylamino)quinoline-3-carbonitrile] |
| 2.5 µM | CS(=O)(=O)c1cccc(CNc2ccc3ncc(C#N)c(NC4CCCCCC4)c3c2)c1 [Example 248, 4-(cycloheptylamino)-6-{[3-(methylsulfonyl)benzyl]amino}quinoline-3-carbonitrile] |

Same assay, conditions: Table 2; Tpl2/Cot kinase, GST-MEK1 substrate, 50 uM ATP

| IC50 | Structure (SMILES) |
| --- | --- |
| 0.33 µM | N#Cc1cnc2c(Br)cc(NCc3cc([C@@H]4CCCN4)n[nH]3)cc2c1Nc1ccc(F)c(Cl)c1 [Example 555] |
| 21.3 µM | N#Cc1cnc2ccc(NCc3ccccc3)cc2c1NC1CCCC1 [Example 415] |
| 2.2 µM | N#Cc1cccc(CNc2ccc3ncc(C#N)c(NC4CCCC4)c3c2)c1 [Example 420] |
| 0.0048 µM | N#Cc1cnc2c(Br)cc(NCc3cn(Cc4ccncc4)nn3)cc2c1Nc1ccc(F)c(Cl)c1 [Example 495] |
| 0.25 µM | N#Cc1cnc2c(Br)cc(NCc3ccnn3-c3ccccc3)cc2c1Nc1ccc(F)c(Cl)c1 [Example 433] |
| 0.12 µM | C[S+]([O-])Cn1cc(CNc2cc(Br)c3ncc(C#N)c(Nc4ccc(F)c(Cl)c4)c3c2)nn1 (centres unmarked) [Example 532] |
| 1 µM | N#Cc1cnc2ccc(Br)cc2c1Nc1ccc(Oc2ccccc2)cc1 [Example 336] |
| 0.057 µM | CC(C)N1CCC(CCn2cc(CNc3cc(Br)c4ncc(C#N)c(Nc5ccc(F)c(Cl)c5)c4c3)nn2)CC1 [Example 569] |
| 0.098 µM | Cn1nccc1CNc1cc(Br)c2ncc(C#N)c(Nc3ccc(F)c(Cl)c3)c2c1 [Example 446] |
| 4.7 µM | CN(CCn1cc(CN(Cc2cn(CCN(C)C(=O)OC(C)(C)C)nn2)c2cc(Br)c3ncc(C#N)c(Nc4ccc(F)c(Cl)c4)c3c2)nn1)C(=O)OC(C)(C)C [Example 501] |

Same assay, conditions: Tpl2/Cot kinase, GST-MEK1 substrate, 50 uM ATP

| IC50 | Structure (SMILES) |
| --- | --- |
| 0.02 µM | C=CCn1cc(CNc2cc(Br)c3ncc(C#N)c(Nc4ccc(F)c(Cl)c4)c3c2)nn1 [Example 732] |
| > 3 µM | CCN(C[C@@H]1CCCN1C(C)=O)c1cc(Cl)c2ncc(C#N)c(Nc3ccc(F)c(Cl)c3)c2c1 [Example 644] |
| 0.2 µM | Cn1cnc(CNc2cc(Br)c3ncc(C#N)c(Nc4ccc(F)c(Cl)c4)c3c2)n1 [Example 664] |
| 0.88 µM | CS(=O)(=O)NCCNc1cc(Cl)c2ncc(C#N)c(Nc3ccc(F)c(Cl)c3)c2c1 [Example 853] |
| 0.048 µM | N#Cc1cnc2c(Cl)cc(NCC(=O)NCc3ccncc3)cc2c1Nc1ccc(F)c(Cl)c1 [Example 772] |
| 0.12 µM | C[S+]([O-])Cn1cc(CNc2cc(Br)c3ncc(C#N)c(Nc4ccc(F)c(Cl)c4)c3c2)nn1 (centres unmarked) [Example 703] |
| 0.0093 µM | CCNC(=O)N1CCC(CCn2cc(CNc3cc(Cl)c4ncc(C#N)c(Nc5ccc(F)c(Cl)c5)c4c3)nn2)CC1 [Example 831] |

Same assay, conditions: Tpl2/Cot kinase, GST-MEK1 substrate, 50 uM ATP, 1 h at 30° C.; Table 2

| IC50 | Structure (SMILES) |
| --- | --- |
| 0.83 µM | CN1CCCC1CCn1cc(CNc2cc(Cl)c3ncc(C#N)c(Nc4ccc(Oc5ccccc5)cc4)c3c2)nn1 (centres unmarked) [Example 990] |
| > 3 µM | N#Cc1cnc2c(Cl)cc(NCc3cc(Br)co3)cc2c1Nc1ccc(F)c(Cl)c1 [Example 1024] |
| 0.31 µM | N#Cc1cnc2c(Cl)cc(NCc3cn(CCN4CCNCC4)nn3)cc2c1Nc1ccc(F)c(Cl)c1 [Example 958] |
| 0.13 µM | N#Cc1cnc2ccc(NCc3cn(C4CCNCC4)nn3)cc2c1NC1CCCCC1 [Example 977] |
| 0.49 µM | N#Cc1cnc2c(Cl)cc(NCc3cn(C4CCN(c5ncccc5C(F)(F)F)CC4)nn3)cc2c1Nc1ccc(F)c(Cl)c1 [Example 1008] |
